According to patent US11298314B2, “Injectable composition for localized fat reduction without pain, edema, and side effects, and method for preparing same” (AMI PHARM CO., LTD., priority 2017, dated 2022):
“Also recorded” adds a separate entry of the source.

How the values were obtained:
[1] = test system: paw of the rats; assay: Rat paw edema; type: in vivo, Sprague Dawley rats; settings: for degree of edema in words: 2 hours after administration, rat paw; for degree of edema, 1 hour after administration / degree of edema, 2 hours after administration / degree of edema, Immediately after administration: 0.1 ml into rat paw
Procedure, shortened: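 Male Sprague Dawley rats (6 weeks old, 170–200 g) received 0.1 ml of PBS or test composition into the paw. Paw thickness measured by caliper before, immediately after, and 1 or 2 h post-injection; edema graded 0–4, with injection-site skin lesions photographed.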

[2] = test system: tissues of the injected area (rat paw); assay: H&E staining histological test (inflammation) of injected rat paw; type: in vivo, Sprague Dawley rats; settings: bile acid single composition 1.0% (w/v), injected rat paw
Description: The tissues of the injected area were dissected, fixed with 10% formalin, and then the specimen was prepared and images were captured using an optical microscope. The degree of inflammation was evaluated as follows.

[3] = test system: inguinal fat pad; settings: 0.2 ml s.c. once into inguinal fat pad, 8 days post-injection; listed as DCA single composition
[4] = test system: sole of the rat paws; assay: Measurement of skin lesion (erythema) on rat paw; type: in vivo, Sprague Dawley rats; settings: for skin lesion (erythema) in words: 2 hours after administration;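 on grade of skin lesion (erythema), 1 hour after administration: grades − to ++++ mean no to extremely severe erythema versus before injection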;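 on grade of skin lesion (erythema), 2 hours after administration: grades − to ++++ mean no to extremely severe erythema versus before injection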;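 on grade of skin lesion (erythema), Immediately after administration: grades − to ++++ mean no to extremely severe erythema versus before injection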
Procedure, shortened: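 Male Sprague Dawley rats (6 weeks, 170–200 g) received 0.1 ml test composition or PBS injected into the paw. Paw thickness measured by caliper before, immediately after, and 1 or 2 h post-injection; sole lesions photographed and graded 0–4.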

[5] = test system: Caspase 3 in 3T3-L1 adipocytes; assay: Caspase 3 activity assay; type: cell-based
Description: The Caspase 3 activity assay was performed with the test materials to determine whether the cell death in the result of MTT assay was due to necrosis or apoptosis. The Caspase 3 specifically increases when apoptosis occurs and is a marker of apoptosis. […] The cells were then treated with 50 ul of cell lysis buffer (10 mM Tris-HCl, 10 mM NaH2PO4/NaHPO4, pH 7.5, 130 mM NaCl, 1% Triton X-100 and 10 mM sodium pyrophosphate) and left at 4° C. for […]. The supernatant was collected by centrifugation at 1000× rpm for 1 minute, and protein quantification was performed by BCA method. The 50 μl of reaction buffer (4 mM HEPES, pH 7.5, 10% glycerol, 2 mM dithiothreitol) and 0.5 μl of 4 mM DEVD-p-NA were added to each sample and reacted at 37° C. for 1 hour. Then wavelength was measured with a […] at 405 nm.

[6] = Formulation stability of PPC injectable preparations: property, transparency, particle size, pH; settings: based on PPC 5.0%
[7] = test system: 3T3-L1 adipocytes; assay: Lipolysis assay (glycerol release); type: cell-based; settings: 48 hours; listed as DCA single
Description: The glycerol activity assay was performed with the test materials to determine whether the cell death in the MTT assay was due to necrosis or lipolysis. Glycerol is a specific marker that increases when fat breaks down. Abcam Lipolysis Assay Kit (Colorimetric) was used according to the manufacturer's manual, and the method of the test was as follows: […] And then the lysis was induced. […] After adding the glycerol assay complex (50 μl) thereto, the solution was incubated at room temperature for 30 minutes. Absorbance was measured at OD 570 (using standard curve for absolute determination).

[8] = bile acid single composition 1.0% (w/v)
[9] = bile acid single composition 2.5% (w/v)
[10] = bile acid single composition 5.0% (w/v)
[11] = bile acid single composition 7.5% (w/v)

C[C@H](CCC(=O)O)[C@H]1CC[C@H]2[C@@H]3CC[C@@H]4C[C@H](O)CC[C@]4(C)[C@H]3C[C@H](O)[C@]12C [DCA, (4R)-4-[(3R,5R,8R,9S,10S,12S,13R,14S,17R)-3,12-dihydroxy-10,13-dimethyl-2,3,4,5,6,7,8,9,11,12,14,15,16,17-tetradecahydro-1H-cyclopenta[a]phenanthren-17-yl]pentanoic acid]
degree of edema in words ([1]; listed as DCA 1.0%): severe
degree of edema in words ([1]; listed as DCA 2.5%): “severe” and “extremely severe”
degree of edema, 1 hour after administration [1, 8]: +++ (severe edema [+++, (the degree of swelling was 40-60% compared to before the injection)])
degree of edema, 2 hours after administration [1, 8]: +++ (severe edema [+++, (the degree of swelling was 40-60% compared to before the injection)])
degree of edema, Immediately after administration [1, 8]: ++ (moderate edema [++, (the degree of swelling was 20-40% compared to before the injection)])
degree of edema, 1 hour after administration [1, 9]: ++++ (extremely severe edema [++++, (the degree of swelling was 60% or more compared to before the injection)])
degree of edema, 2 hours after administration [1, 9]: ++++ (extremely severe edema [++++, (the degree of swelling was 60% or more compared to before the injection)])
degree of edema, Immediately after administration [1, 9]: ++ (moderate edema [++, (the degree of swelling was 20-40% compared to before the injection)])
degree of edema, 1 hour after administration [1, 10]: ++++ (extremely severe edema [++++, (the degree of swelling was 60% or more compared to before the injection)])
degree of edema, 2 hours after administration [1, 10]: ++++ (extremely severe edema [++++, (the degree of swelling was 60% or more compared to before the injection)])
degree of edema, Immediately after administration [1, 10]: ++ (moderate edema [++, (the degree of swelling was 20-40% compared to before the injection)])
degree of edema, 1 hour after administration [1, 11]: ++++ (extremely severe edema [++++, (the degree of swelling was 60% or more compared to before the injection)])
degree of edema, 2 hours after administration [1, 11]: ++++ (extremely severe edema [++++, (the degree of swelling was 60% or more compared to before the injection)])
degree of edema, Immediately after administration [1, 11]: ++ (moderate edema [++, (the degree of swelling was 20-40% compared to before the injection)])
Inflammation (H&E), BA % (w/v) 1.0 [2]: +++
inflammation at the site of administration, dermal and epidermal tissues [3]: severe inflammation was induced
skin lesion (erythema) in words ([4]; listed as DCA 1.0%): Moderate
skin lesion (erythema) in words ([4]; listed as DCA 2.5%): “severe” and “extremely severe”
grade of skin lesion (erythema), 1 hour after administration [4, 8]: ++
grade of skin lesion (erythema), 2 hours after administration [4, 8]: ++
grade of skin lesion (erythema), Immediately after administration [4, 8]: ++
grade of skin lesion (erythema), 1 hour after administration [4, 9]: ++++
grade of skin lesion (erythema), 2 hours after administration [4, 9]: +++
grade of skin lesion (erythema), Immediately after administration [4, 9]: ++
grade of skin lesion (erythema), 1 hour after administration [4, 10]: ++++
grade of skin lesion (erythema), 2 hours after administration [4, 10]: ++++
grade of skin lesion (erythema), Immediately after administration [4, 10]: ++
grade of skin lesion (erythema), 1 hour after administration [4, 11]: ++++
grade of skin lesion (erythema), 2 hours after administration [4, 11]: ++++
grade of skin lesion (erythema), Immediately after administration [4, 11]: ++
caspase-3 activity ([5]; after 48 hours): returned to pretreatment levels
caspase-3 activity ([5]; up to 24 hours): some caspase-3 activity
bile acid concentration at which stable injectable preparations can be made [6]: ≥ 2.1%
glycerol release / cytolytic activity [7]: slightly higher cytolytic activity than at 24 hours; also recorded: slightly higher cytolytic activity than that of 24 hours
